Data: BindingDB's records for doi:10.1016/j.bmcl.2013.05.024 (Janssen Research and Development, 2014)
pIC50: −log10 of the molar value.

Assay: Antagonist activity at CCR2 receptor in human THP1 cells assessed as inhibition of MCP-1 induced chemotaxis after 3 hrs

SMILES | pIC50
COC1COCCC1N[C@@H]1C[C@H]2CN(C(=O)OCCN3CCCC3)C[C@@]2(C(=O)N2CCc3ncc(C(F)(F)F)cc3C2)C1 (some centres undefined) | 7.55
COC1COCCC1N[C@@H]1C[C@H]2CN(C(=O)OCCN3CCOCC3)C[C@@]2(C(=O)N2CCc3ncc(C(F)(F)F)cc3C2)C1 (some centres undefined) | 7.01
COC1COCCC1N[C@@H]1C[C@H]2CN(C(=O)/C=C/C(C)(C)C)C[C@@]2(C(=O)N2CCc3ncc(C(F)(F)F)cc3C2)C1 (some centres undefined) | 7.06
COC1COCCC1N[C@@H]1C[C@H]2CN(C(=O)Oc3ccccc3)C[C@@]2(C(=O)N2CCc3ncc(C(F)(F)F)cc3C2)C1 (some centres undefined) | 6.02
COC1COCCC1N[C@@H]1C[C@H]2CN(C(=O)NCc3ccccc3)C[C@@]2(C(=O)N2CCc3ncc(C(F)(F)F)cc3C2)C1 (some centres undefined) | 6.66
COC1COCCC1N[C@@H]1C[C@H]2CN(c3ccccc3)C[C@@]2(C(=O)N2CCc3ncc(C(F)(F)F)cc3C2)C1 (some centres undefined) | 7.05
COC1COCCC1N[C@@H]1C[C@H]2CN(C(=O)OCC3CCOCC3)C[C@@]2(C(=O)N2CCc3ncc(C(F)(F)F)cc3C2)C1 (some centres undefined) | 7.19
COC1COCCC1N[C@@H]1C[C@H]2CN(C(=O)OCc3ccccc3)C[C@@]2(C(=O)N2CCc3ncc(C(F)(F)F)cc3C2)C1 (some centres undefined) | 6.72
COC1COCCC1N[C@@H]1C[C@H]2CN(C(=O)OCCNC(C)=O)C[C@@]2(C(=O)N2CCc3ncc(C(F)(F)F)cc3C2)C1 (some centres undefined) | 7.74

Continued, values first:

pIC50 | SMILES
7.39 | COCCOC(=O)N1C[C@@H]2C[C@@H](NC3CCOCC3OC)C[C@]2(C(=O)N2CCc3ncc(C(F)(F)F)cc3C2)C1 (some centres undefined)
7.41 | COC1COCCC1N[C@@H]1C[C@H]2CN(C(=O)C#CC3CC3)C[C@@]2(C(=O)N2CCc3ncc(C(F)(F)F)cc3C2)C1 (some centres undefined)
6.64 | COC1COCCC1N[C@@H]1C[C@H]2CN(C(C)=O)C[C@@]2(C(=O)N2CCc3ncc(C(F)(F)F)cc3C2)C1 (some centres undefined)
7.15 | CNC(=O)N1C[C@@H]2C[C@@H](NC3CCOCC3OC)C[C@]2(C(=O)N2CCc3ncc(C(F)(F)F)cc3C2)C1 (some centres undefined)
7.16 | COC(=O)N1C[C@@H]2C[C@@H](NC3CCOCC3OC)C[C@]2(C(=O)N2CCc3ncc(C(F)(F)F)cc3C2)C1 (some centres undefined)
7.00 | COC1COCCC1N[C@@H]1C[C@H]2CN(C(=O)OCC(C)(C)C)C[C@@]2(C(=O)N2CCc3ncc(C(F)(F)F)cc3C2)C1 (some centres undefined)
7.54 | COC1COCCC1N[C@@H]1C[C@H]2CN(C(N)=NC#N)C[C@@]2(C(=O)N2CCc3ncc(C(F)(F)F)cc3C2)C1 (some centres undefined)
7.68 | COC1COCCC1N[C@@H]1C[C@H]2CN(C(=O)OCC(C)C)C[C@@]2(C(=O)N2CCc3ncc(C(F)(F)F)cc3C2)C1 (some centres undefined)
7.09 | COC1COCCC1N[C@@H]1C[C@H]2CN(C(=O)NC(C)C)C[C@@]2(C(=O)N2CCc3ncc(C(F)(F)F)cc3C2)C1 (some centres undefined)
7.57 | COC1COCCC1N[C@@H]1C[C@H]2CN(C(N)=O)C[C@@]2(C(=O)N2CCc3ncc(C(F)(F)F)cc3C2)C1 (some centres undefined)
